# Where two headings read alike, the source gives them in different places.
# Assays:
# αvβ3 = target: T1, αvβ3 (Homo sapiens, UniProt P05106+P06756); assay: Cell adhesion assay, K562-tr on osteopontin; format: cell-based
# T1 construct: expressed in transfected cells; host or cells: K562
# Experimental: (§1) The wells of 96-well plates (Immunolon) were coated, by incubation overnight at 4° C., with 5 ug/mL vitronectin, 2 ug/mL osteopontin, or fibronectin or 10 mg/mL BSA in PBS. The protein solution was flicked out and the wells were blocked with 10 mg/mL BSA (0.1 mL) for 1-2 hours at 37° C. […] Cells were lifted with trypsin-EDTA and washed two times with Hank's balanced salt solution minus cations (Sigma) supplemented with 1 mM MgCl2 Cells (75,000 cells/well) were added to coated plates in triplicate and allowed to attach at 37° C. for 1 hour in the presence or absence of specific antibodies (5 ug/mL) or 10-fold dilutions of compounds of interest starting at 10 uM. Nonadherent cells were removed by gentle washing twice with PBS. The adherent cells were solubilized with 1% triton x-100 and detected using a fluorescence plate reader (DYNEX Technologies). The number of attached cells was calculated based upon standard curves for each cell line used in the experiment.
# αvβ5 = target: T2, αvβ5 (Homo sapiens, UniProt P06756+P18084); assay: Cell adhesion assay, HT29 on vitronectin; format: cell-based
# T2 construct: Cells HT29, K562, or K562 transfected with αvβ3; endogenous in cells; host or cells: HT29
# Experimental: as §1
# HMVEC = assay: Cell proliferation and cytotoxicity MTT assay, HMVEC; format: cell-based; settings: 72 hours culture
# Experimental: (§2) The wells of microtiter plates were seeded with 2000 cells/well T24, 2500 cells/well HT29 or 5000 cells/well HMVEC (Cell Systems) in 100 uL, followed by an overnight culture for cell adhesion. The next day, the media is supplemented with 100 uL of 10-fold dilution of compound of interest starting at 10 uM. Following culture for 72 hours, 3-(4,5-dimethyl-2-thiazolyl)-2,5-diphenyltetrazolium bromide (MTT; Sigma) at 2 mg/mL was added to each well (50 uL/well) and further incubated for 4 hours at 37° C. The medium was flicked out and 200 uL of a 1:1 solution of ethanol:acetone followed by 25 uL of glycine buffer (0.1 M glycine, 0.1M NaCl, pH 10.5) is added and the color measured by the absorbance at 570 nm.
# GP IIb-IIIa (αIIbβ3) = target: T3, GP IIb-IIIa (αIIbβ3) (Homo sapiens, UniProt P05106+P08514); assay: Fibrinogen binding to immobilized GP IIb-IIIa (αIIbβ3)
# T3 construct: purchased Calbiochem
# Experimental: (§3) The wells of plastic microtiter plates were coated overnight at 4° C. with purified active αIIbβ3 (Calbiochem) or placental αvβ3 at 0.5 ug/mL (100 uL/well) in a buffer containing 150 mM NaCl, 20 mM Tris, pH 7.4, 1 mM MgCl2, 0.2 mM MnCl2, and including 1 mM CaCl2 for αIIbβ3. Blocking of nonspecific sites was achieved by incubating the wells with 35 mg/mL bovine serum albumin (BSA) for at least 2 hours at 37° C. Biotinylated-fibrinogen (10 nM) was added in 0.2 mL binding buffer (100 mM NaCl, 50 mM Tris, pH 7.4, 1 mM MgCl2, 0.2 mM MnCl2 and 1 mg/mL BSA including 1 mM CaCl2 for αIIbβ3) to the wells in triplicate in the absence or presence of increasing concentrations of compounds of interest (0.001-100 uM) and further incubated for 2 hours at 37° C. Nonbound fibrinogen was removed by five washes with binding buffer. Avidin conjugated to alkaline phosphatase (Sigma), diluted in binding buffer, was added and incubated for two hours at 37° C. The plates were washed five times with binding buffer, and after addition of the substrate PNPP (Pierce), the enzyme activity was measured by the absorbance at 405 nm.
# placental αvβ3 = target: T4, placental αvβ3 (Homo sapiens, UniProt P05106+P06756); assay: Fibrinogen binding to immobilized αvβ3
# T4 construct: placental αvβ3 at 0.5 ug/mL; from tissue; host or cells: placenta
# Experimental: as §3
# α5β1 = target: T5, α5β1 (Homo sapiens, UniProt P05556+P08648); assay: Cell adhesion assay, K562 on fibronectin; format: cell-based; settings: K562 cells, adhesion to fibronectin, 1 hour
# T5 construct: Cells HT29, K562, or K562 transfected with αvβ3; endogenous in cells; host or cells: K562
# Experimental: The wells of 96-well plates (Immunolon) were coated, by incubation overnight at 4° C., with 5 ug/mL vitronectin, 2 ug/mL osteopontin, or fibronectin or 10 mg/mL BSA in PBS. The protein solution was flicked out and the wells were blocked with 10 mg/mL BSA (0.1 mL) for 1-2 hours at 37° C. Cells HT29, K562, or K562 transfected with αvβ3 (Blystone et al., 1994) were loaded with a fluorescent marker, 5-chloromethylfluorescein diacetate (Molecular Probes, Eugene, Oreg.) for 1 hour at 37° C., then incubated in fresh medium without the fluorescent marker for 1 hour. Cells were lifted with trypsin-EDTA and washed two times with Hank's balanced salt solution minus cations (Sigma) supplemented with 1 mM MgCl2 Cells (75,000 cells/well) were added to coated plates in triplicate and allowed to attach at 37° C. for 1 hour in the presence or absence of specific antibodies (5 ug/mL) or 10-fold dilutions of compounds of interest starting at 10 uM. Nonadherent cells were removed by gentle washing twice with PBS. The adherent cells were solubilized with 1% triton x-100 and detected using a fluorescence plate reader (DYNEX Technologies). The number of attached cells was calculated based upon standard curves for each cell line used in the experiment. Non-specific cell attachment (attachment to wells coated with BSA) was always less than 5%.
# HT29 = assay: Cell proliferation and cytotoxicity MTT assay, HT29; format: cell-based
# Experimental: as §2
# [1] = tested on: Chick chorioallantoic membrane (CAM) capillary formation driven by VPF/VEGF165; assay: Chick chorioallantoic membrane (CAM) mesh assay; format: in vivo, chicken; settings: significant if >25%
# Experimental: Fertilized white leghorn chicken eggs (SPAFAS Inc., Norwich, Conn.) were received at day 0 and incubated for 3 days at 37 C with constant humidity. On day 3, eggs were rinsed with 70% ethanol and opened into 100 mm^2 tissue culture coated Petri dishes under aseptic conditions. The embryos were then returned to a humidified 38 C incubator for 7-9 additional days.
# Vitrogen (Collagen Biomaterials, Palo Alto, Calif.) at a final concentration of 0.73 mg/mL and Matrigel (Becton Dickinson, Bedford, Mass.) at a final concentration of 10 mg/mL was directly pipetted onto Nylon meshes with 250 μm^2 openings which were cut into 4 mm×4 mm squares and autoclaved. Polymerization of meshes were under aseptic conditions, on bacteriological Petri dishes. The polymerization conditions for each substrate were identical; after mixing with or without 250 μg of VPF/VEGF165 (Peprotech, Rocky Hill, N.J.) and/or compounds of interest, 40 μL were pipetted onto each mesh in a bacteriological Petri dish. The Petri dish was placed in a humidified 37 C incubator with 5% CO2 for 30 minutes to allow polymerization followed by an incubation at 4° C. for 2 hours.
# In a tissue culture enclosure, meshes were placed onto the periphery of the CAM of a day 12-14 embryo, excluding areas containing major vessels. The embryos were then returned to the humidified 38° C. incubator with 3% CO2 for 24 to 48 additional hours.
# Embryos were removed from the incubator and meshes were viewed under a dissecting microscope for gross evaluation. Injection of 400 μL FITC dextran, MW 2,000,000 (Sigma, St. Louis, Mo.) through glass microcapillary tubes by infusion into the umbilical vein was performed at a rate of 200 μl per minute. The FITC dextran was allowed to circulate for 5 minutes and 3.7% formaldehyde in PBS was applied directly on each mesh. The embryos were then incubated at 40° C. for 5 minutes and the meshes were dissected off the CAM and fixed in 3.7% formaldehyde for 10 minutes to overnight.
# After fixation, meshes were mounted on slides with 90% glycerol in PBS and visualized on an inverted fluorescence microscope. A Nikon Diaphot with a Sony DXC-151A camera attached to the side port was used for capture of images and analysis was with the NIH Image 1.61 software program. For each mesh, 5 random staggered images (approximately 600 μm each) were captured. The areas of high intensity were highlighted and measured. Results are expressed as ability to suppress capillary formation after subtraction from negative control. Values were calculated as a inhibition, considering 100% the capillary density achieved by VPF in the presence of vitrogen alone minus the bakground levels in the absence of VPF. Negative values indicated angiogenic stimulation above the VPF positive control.
# T3 sequence (P08514 32-887 limits assumed): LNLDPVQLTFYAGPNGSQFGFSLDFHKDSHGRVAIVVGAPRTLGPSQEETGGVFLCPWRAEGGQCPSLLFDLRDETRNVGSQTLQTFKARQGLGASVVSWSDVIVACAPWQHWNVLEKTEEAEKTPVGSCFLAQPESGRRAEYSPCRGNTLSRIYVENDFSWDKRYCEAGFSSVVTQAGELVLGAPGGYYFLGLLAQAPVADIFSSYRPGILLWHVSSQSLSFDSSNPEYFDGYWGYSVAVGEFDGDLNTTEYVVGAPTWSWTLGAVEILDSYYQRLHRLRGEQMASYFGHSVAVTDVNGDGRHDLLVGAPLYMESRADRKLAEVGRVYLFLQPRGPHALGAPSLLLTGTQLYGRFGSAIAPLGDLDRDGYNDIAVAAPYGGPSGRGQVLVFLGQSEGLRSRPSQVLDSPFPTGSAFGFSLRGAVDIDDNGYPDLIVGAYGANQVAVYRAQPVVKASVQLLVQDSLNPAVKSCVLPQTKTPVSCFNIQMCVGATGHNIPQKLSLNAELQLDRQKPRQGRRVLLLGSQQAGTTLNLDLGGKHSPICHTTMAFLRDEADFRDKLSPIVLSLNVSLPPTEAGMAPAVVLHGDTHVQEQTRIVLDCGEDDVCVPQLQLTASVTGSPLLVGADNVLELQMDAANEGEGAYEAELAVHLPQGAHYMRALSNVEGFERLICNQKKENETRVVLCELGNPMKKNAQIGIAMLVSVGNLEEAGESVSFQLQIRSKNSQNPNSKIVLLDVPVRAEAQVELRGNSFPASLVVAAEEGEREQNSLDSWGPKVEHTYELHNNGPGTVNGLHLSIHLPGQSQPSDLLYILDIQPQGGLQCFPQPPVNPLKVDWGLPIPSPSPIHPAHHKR
# T3 sequence (P08514 891-1039 partner limits assumed): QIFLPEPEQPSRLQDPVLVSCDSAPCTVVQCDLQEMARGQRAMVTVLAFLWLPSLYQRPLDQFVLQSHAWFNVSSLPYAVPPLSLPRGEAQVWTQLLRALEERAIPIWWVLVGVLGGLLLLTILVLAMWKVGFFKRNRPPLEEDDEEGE
# T3 sequence (P05106 27-788): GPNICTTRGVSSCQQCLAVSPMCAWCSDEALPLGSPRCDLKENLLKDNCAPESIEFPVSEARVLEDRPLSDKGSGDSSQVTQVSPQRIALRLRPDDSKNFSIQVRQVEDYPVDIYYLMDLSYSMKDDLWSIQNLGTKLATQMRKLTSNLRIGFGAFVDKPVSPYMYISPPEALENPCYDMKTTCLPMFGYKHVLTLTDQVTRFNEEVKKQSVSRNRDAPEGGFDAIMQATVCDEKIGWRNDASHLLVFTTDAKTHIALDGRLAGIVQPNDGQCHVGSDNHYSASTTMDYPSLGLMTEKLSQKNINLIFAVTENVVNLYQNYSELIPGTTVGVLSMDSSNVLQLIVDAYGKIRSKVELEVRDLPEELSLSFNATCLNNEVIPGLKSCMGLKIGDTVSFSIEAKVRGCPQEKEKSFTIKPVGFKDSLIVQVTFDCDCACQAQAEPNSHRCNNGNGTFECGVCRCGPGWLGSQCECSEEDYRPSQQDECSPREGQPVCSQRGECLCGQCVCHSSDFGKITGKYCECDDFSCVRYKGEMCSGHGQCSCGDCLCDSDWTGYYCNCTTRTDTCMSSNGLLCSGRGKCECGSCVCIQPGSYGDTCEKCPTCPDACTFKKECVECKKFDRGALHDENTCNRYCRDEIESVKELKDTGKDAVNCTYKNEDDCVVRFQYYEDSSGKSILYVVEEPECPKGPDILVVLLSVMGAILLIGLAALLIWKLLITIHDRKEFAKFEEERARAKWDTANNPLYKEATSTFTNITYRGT
# T1 sequence (P06756 31-889 limits assumed): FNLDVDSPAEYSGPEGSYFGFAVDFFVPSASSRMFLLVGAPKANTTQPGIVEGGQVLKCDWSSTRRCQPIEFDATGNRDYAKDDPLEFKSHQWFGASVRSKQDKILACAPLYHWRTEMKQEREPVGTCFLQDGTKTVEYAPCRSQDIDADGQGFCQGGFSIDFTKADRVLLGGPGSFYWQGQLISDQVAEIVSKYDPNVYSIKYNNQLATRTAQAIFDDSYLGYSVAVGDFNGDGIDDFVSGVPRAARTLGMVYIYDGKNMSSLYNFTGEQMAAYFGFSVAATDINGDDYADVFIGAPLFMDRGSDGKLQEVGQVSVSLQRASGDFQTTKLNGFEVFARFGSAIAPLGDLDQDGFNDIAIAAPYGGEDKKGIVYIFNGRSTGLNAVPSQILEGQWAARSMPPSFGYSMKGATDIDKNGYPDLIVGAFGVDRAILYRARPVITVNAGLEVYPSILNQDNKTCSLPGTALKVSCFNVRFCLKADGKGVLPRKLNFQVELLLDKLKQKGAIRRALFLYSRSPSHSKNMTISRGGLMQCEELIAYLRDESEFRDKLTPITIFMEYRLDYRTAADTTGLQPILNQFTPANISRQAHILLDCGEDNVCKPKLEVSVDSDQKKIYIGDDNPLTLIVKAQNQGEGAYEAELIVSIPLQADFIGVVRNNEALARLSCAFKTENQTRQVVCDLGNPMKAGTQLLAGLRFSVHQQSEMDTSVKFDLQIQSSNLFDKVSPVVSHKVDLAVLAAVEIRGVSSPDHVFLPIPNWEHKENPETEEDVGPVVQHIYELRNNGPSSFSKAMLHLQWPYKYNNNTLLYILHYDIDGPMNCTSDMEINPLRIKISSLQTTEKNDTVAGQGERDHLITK
# T1 sequence (P06756 891-1048 partner limits assumed): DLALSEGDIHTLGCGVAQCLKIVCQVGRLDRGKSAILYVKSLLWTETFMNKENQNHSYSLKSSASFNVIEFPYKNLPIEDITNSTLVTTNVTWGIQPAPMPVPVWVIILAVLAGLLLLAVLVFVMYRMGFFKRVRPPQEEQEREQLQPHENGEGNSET
# T1 sequence (P05106 27-788): as the sequence (P05106 27-788) above
# T2 sequence (P06756 31-889 limits assumed): as the sequence (P06756 31-889 limits assumed) above
# T2 sequence (P06756 891-1048 partner limits assumed): as the sequence (P06756 891-1048 partner limits assumed) above
# T2 sequence (P18084 24-799): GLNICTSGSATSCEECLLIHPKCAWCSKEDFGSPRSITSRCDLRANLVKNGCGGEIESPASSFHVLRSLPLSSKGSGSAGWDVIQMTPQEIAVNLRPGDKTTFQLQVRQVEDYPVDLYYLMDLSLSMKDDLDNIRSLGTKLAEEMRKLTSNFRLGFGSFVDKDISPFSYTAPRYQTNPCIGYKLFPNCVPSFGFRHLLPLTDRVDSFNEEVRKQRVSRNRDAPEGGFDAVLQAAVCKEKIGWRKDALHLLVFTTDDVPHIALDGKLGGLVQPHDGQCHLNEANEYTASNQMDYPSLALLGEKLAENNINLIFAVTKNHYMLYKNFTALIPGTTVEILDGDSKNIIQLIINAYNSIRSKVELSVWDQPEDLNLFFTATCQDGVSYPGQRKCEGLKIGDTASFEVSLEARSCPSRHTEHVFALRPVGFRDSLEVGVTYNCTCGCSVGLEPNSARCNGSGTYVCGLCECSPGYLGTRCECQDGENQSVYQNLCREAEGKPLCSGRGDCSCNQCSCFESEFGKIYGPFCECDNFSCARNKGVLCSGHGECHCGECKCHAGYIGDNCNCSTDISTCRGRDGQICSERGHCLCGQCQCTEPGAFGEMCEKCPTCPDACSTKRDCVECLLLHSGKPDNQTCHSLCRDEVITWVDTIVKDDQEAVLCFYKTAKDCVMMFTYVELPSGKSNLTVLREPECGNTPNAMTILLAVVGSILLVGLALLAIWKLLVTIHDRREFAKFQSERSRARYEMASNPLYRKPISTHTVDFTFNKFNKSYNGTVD
# T4 sequence (P06756 31-889 limits assumed): as the sequence (P06756 31-889 limits assumed) above
# T4 sequence (P06756 891-1048 partner limits assumed): as the sequence (P06756 891-1048 partner limits assumed) above
# T4 sequence (P05106 27-788): as the sequence (P05106 27-788) above
Molecule,"IC50 (αvβ3; K562 transfected with αvβ3, adhesion to osteopontin, 1 hour, read-out: IC50 K562-tr Osteopontin (αvβ3)) [nM]","IC50 (αvβ5; HT29 cells, adhesion to vitronectin, 1 hour, read-out: IC50 HT29 Vitronectin (αvβ5)) [nM]",IC50 (HMVEC) [nM],"IC50 (GP IIb-IIIa (αIIbβ3); biotinylated-fibrinogen (10 nM) binding to immobilized αIIbβ3, read-out: IC50 αIIbβ3) [nM]","IC50 (placental αvβ3; biotinylated-fibrinogen (10 nM) binding to immobilized αvβ3, read-out: IC50 αvβ3) [nM]",IC50 (α5β1) [nM],IC50 (HT29; 72 hours culture) [nM],% of inhibition at 33 μg/mesh in the presence of VEGF [1] [%],IC50 (αvβ3) [nM],IC50 (αvβ5) [nM],IC50 (HMVEC; HMVEC) [nM],IC50 (GP IIb-IIIa (αIIbβ3)) [nM],IC50 (placental αvβ3) [nM],"IC50 (HT29; Homo sapiens, HT-29, 72 hours culture) [nM]"
(2S)2-Benzenesulfonylamino-3-[5-(2-guanidinyl-ethylcarbamoyl)-thiophen-2-carbonyl]-amino propionic acid hydrochloride salt [Compound XI],87,210,870,0.31,0.58,5300,9900,38,,,,,,
"N=C(N)NCCNC(=O)c1ccc(C(=O)NCC(Nc2ncccn2)C(=O)O)s1.O=C(O)C(F)(F)F.O=C(O)C(F)(F)F (stereo not shown) [Compound XXX, 3-{[5-(2-guanidino-ethylcarbamoyl)-thiophene-2-carbonyl]-amino}-2-(pyrimidin-2-ylamino)-propionic acid bis trifluoroacetic acid salt]",,,,,,> 10000,,31,3400,> 10000,> 10000,690,150,> 10000
